Experiment: xn = mol fraction of the nth substance listed
Conditions: 100 kPa

O=Cc1ccco1 + CCCC[P+](C)(CCCC)CCCC.COS(=O)(=O)[O-]
Conditions	speed of sound [m/s]	viscosity [mPa·s]
293.15 K, x2 = 0	1459.1	1.62
293.15 K, x2 = 0.062	1482.3	2.5
293.15 K, x2 = 0.142	1505.9	21.3
293.15 K, x2 = 0.249	1527	65
293.15 K, x2 = 0.317	1541.2	95
293.15 K, x2 = 0.399	1556.3	134
293.15 K, x2 = 0.499	1563.9	190
293.15 K, x2 = 0.732	1568.5	400
293.15 K, x2 = 0.823	1566.1	500
293.15 K, x2 = 0.863	1565.4	560
293.15 K, x2 = 0.91	1563.4	610
293.15 K, x2 = 0.951	1563.1	660
298.15 K, x2 = 0	1440.2	1.48
298.15 K, x2 = 0.142	1489.6	10.1
298.15 K, x2 = 0.191	1499.2	17.1
298.15 K, x2 = 0.249	1511.1	31
298.15 K, x2 = 0.317	1525.5	47
298.15 K, x2 = 0.399	1540.4	72
298.15 K, x2 = 0.499	1548.6	101
298.15 K, x2 = 0.624	1555.2	160
298.15 K, x2 = 0.732	1552.5	270
298.15 K, x2 = 0.823	1550.2	350
298.15 K, x2 = 0.863	1549.3	390
298.15 K, x2 = 0.91	1547.2	440
298.15 K, x2 = 0.951	1546.2	480
303.15 K, x2 = 0	1422	1.36
303.15 K, x2 = 0.062	1454.5	2.14
303.15 K, x2 = 0.1	1463	3.1
303.15 K, x2 = 0.142	1472.1	4.1
303.15 K, x2 = 0.249	1493.1	8.7
303.15 K, x2 = 0.317	1508.5	25
303.15 K, x2 = 0.399	1524.3	40
303.15 K, x2 = 0.499	1534.6	55
303.15 K, x2 = 0.624	1539.8	93
303.15 K, x2 = 0.823	1533.5	260
303.15 K, x2 = 0.863	1532.5	290
303.15 K, x2 = 0.91	1531.2	320
303.15 K, x2 = 0.951	1530.1	350
308.15 K, x2 = 0	1403.8	1.26
308.15 K, x2 = 0.062	1434	1.99
308.15 K, x2 = 0.1	1443.5	3
308.15 K, x2 = 0.191	1466.5	5.6
308.15 K, x2 = 0.249	1476.3	7.7
308.15 K, x2 = 0.399	1508.3	20.4
308.15 K, x2 = 0.499	1515.9	34
308.15 K, x2 = 0.732	1521.5	133
308.15 K, x2 = 0.823	1519.8	194
308.15 K, x2 = 0.863	1517.1	217
308.15 K, x2 = 0.91	1516.5	241
308.15 K, x2 = 0.951	1515.5	270
313.15 K, x2 = 0.062	1418.8	1.76
313.15 K, x2 = 0.142	1438.3	3.6
313.15 K, x2 = 0.191	1449	5.6
313.15 K, x2 = 0.249	1459.5	6.7
313.15 K, x2 = 0.317	1475.5	8.8
313.15 K, x2 = 0.399	1492.4	11.5
313.15 K, x2 = 0.499	1501.5	17.9
313.15 K, x2 = 0.624	1509.5	43
313.15 K, x2 = 0.732	1505.7	101
313.15 K, x2 = 0.823	1504.6	146
313.15 K, x2 = 0.863	1502.3	165
313.15 K, x2 = 0.91	1500.7	185
313.15 K, x2 = 0.951	1500.5	201
318.15 K, x2 = 0	1367.8	1.09
318.15 K, x2 = 0.1	1410.1	2.5
318.15 K, x2 = 0.191	1431.3	4.3
318.15 K, x2 = 0.317	1457.6	7
318.15 K, x2 = 0.399	1476.4	9.9
318.15 K, x2 = 0.624	1494.6	32
318.15 K, x2 = 0.732	1493.4	81
318.15 K, x2 = 0.823	1489.6	116
318.15 K, x2 = 0.863	1488.6	130
318.15 K, x2 = 0.91	1488.2	144
318.15 K, x2 = 0.951	1486.5	158
323.15 K, x2 = 0	1349.9	1.02
323.15 K, x2 = 0.062	1386	1.53
323.15 K, x2 = 0.1	1394.5	2.3
323.15 K, x2 = 0.142	1402.1	3.3
323.15 K, x2 = 0.317	1443.6	6
323.15 K, x2 = 0.399	1460.6	8.6
323.15 K, x2 = 0.499	1469.8	18.6
323.15 K, x2 = 0.624	1479.9	27
323.15 K, x2 = 0.732	1479.9	73
323.15 K, x2 = 0.823	1478.2	99
323.15 K, x2 = 0.863	1477.2	110
323.15 K, x2 = 0.91	1476.1	117
323.15 K, x2 = 0.951	1474.6	126

CCCC[P+](C)(CCCC)CCCC.COS(=O)(=O)[O-] + O=Cc1ccco1
x1 = 1
Conditions	speed of sound [m/s]	viscosity [mPa·s]
293.15 K	1563.7	730
298.15 K	1546.1	520
303.15 K	1529.7	380
308.15 K	1514.3	290
313.15 K	1499.2	217
318.15 K	1485.7	169
323.15 K	1472.1	133

Source: a compilation of properties of binary mixtures (doi:10.1016/j.jct.2020.106150)
